Experimental data published in US20040033263A1, “Reduced formate poly(alkylene oxides) with secondary amines for reducing impurity formation” (priority 2002, published 2004).

Assays:
[1] = cited from earlier work
[2] = Stability of reboxetine methanesulfonate in the presence of traditional poly(alkylene oxide) polymers; assay type: physicochemical
Text: Substantial levels of various impurities are formed, which increase in concentration over time. The predominant impurity that is formed is the n-formyl species of reboxetine methanesulfonate, known as n-formyl reboxetine.
Poly(alkylene oxide) polymer consists of long chains of the polymer. Irradiation and oxidation cause these chains to be cleaved, leaving inorganic and organic formates at the ends of the chains. As more cleaving occurs, there are higher levels of formates present.

| Compound | Pka [1] | stability in the presence of traditional poly(alkylene oxide) polymer subjected to irradiation processes or oxidation [2] | stability in the presence of traditional polyethylene oxides [2] |
| --- | --- | --- | --- |
| C/C(=C/C(=O)O)C(=O)O [citraconic acid] | 2.48 | – | – |
| CCOc1ccccc1OC(c1ccccc1)C1CNCCO1.CS(=O)(=O)O (centres unmarked) [reboxetine methanesulfonate] | – | substantially less stable | unstable |
| O=S(O)(O)=S [thiosurfuric acid] | 2.00 | – | – |
| F [hydrofluoric acid] | 3.14 | – | – |
